What was measured:
[1] = test system: KG-1 cell lines (human acute myeloid leukemia cells); experiment: AML cell (KG1) toxicity in AML-BMEC co-culture high-throughput screening assay; type: cell-based; conditions: percent toxicity to KG-1 cells normalized to DMF
Method: FIG. 4. Schematic of high throughput screening assay. AML cells are cultured on bone marrow derived endothelial cells. After 24 hours of exposure to compound treatment, the AML cells and endothelial cells are analyzed for viability using flow cytometry for 7-AAD and annexin. The phase contrast micrographs in the bottom portion of this figure are representative of untreated control and drug treated conditions. In the control situation, spindle shaped endothelial cells appear under the round shaped AML cells. In the drug treated conditions, some compounds disrupt the spindle shaped endothelial cells and lead to their detachment and death. […] This is optimal because of the high toxicity to the malignant cells and low toxicity to stromal cells. Stromal cell viability represents safety.
(§1) The values given for percent toxicity to KG-1 cells is normalized to DMF. To compare the average AML-LSC toxicity vs. AML total toxicity, fresh human primary leukemia bone marrow mononuclear cells were treated with single doses of compounds, 2470-23 and 2470-51, at a single time point, and the killing of the AML leukemia stem cell (LSC) population versus the total AML cell population was quantified (FIG. 1). […] Next, AML-LSC toxicity versus T lymphocyte (Jurkat) toxicity was investigated. […] The single-dose treatments of 2470-23 and 2470-51 on normal healthy blood stem cells (sourced from fresh umbilical cord blood) versus AML LSC were also compared.

[2] = test system: lymphoid (CD4+ Jurkat) versus myeloid (AML LSC) leukemia cells; experiment: AML-LSC toxicity vs. Jurkat toxicity; type: cell-based, human; conditions: single-dose treatment; FIG. 2
Method: FIG. 2. Comparison of average AML-LSC toxicity vs. Jurkat toxicity.
as §1

[3] = test system: AML leukemia stem cell (LSC) population (CD34+CD38-CD123+); experiment: AML-LSC toxicity vs. AML total toxicity in fresh primary leukemia bone marrow mononuclear cells; type: cell-based, human; conditions: for killing of AML LSC population versus total AML cell population: single dose, single time point, FIG. 1; for depletion of leukemia stem cells: single-dose treatment, FIG. 3
Method: FIG. 1. Comparing average AML-LSC toxicity vs. AML total toxicity. Fresh human primary leukemia bone marrow mononuclear cells were treated with single doses of compounds 2470-23 and 2470-51 at a single time point and the killing of the leukemia stem cell (LSC) population (defined as CD34+CD38-CD123+) was quantified versus the total AML cell population.
as §1

[4] = test system: normal healthy blood stem cells (fresh umbilical cord blood); experiment: Cord blood stem cell toxicity; type: cell-based, human; conditions: single-dose treatment; FIG. 3
Method: FIG. 3. Comparison of average AML-LSC toxicity vs. cord blood stem cell toxicity. The single-dose treatments of 2470-23 and 2470-51 on normal healthy blood stem cells (sourced from fresh umbilical cord blood) and AML LSC were compared.
as §1

[5] = Microsomal stability, human; type: in vitro ADME; conditions: microsomes, read-out: Microsomal Stability, t1/2
CYP450 3A4 = CYP450 3A4 (Homo sapiens, UniProt P08684); experiment: CYP450 inhibition 3A4; type: in vitro ADME
Sequence of CYP450 3A4 (P08684 whole entry): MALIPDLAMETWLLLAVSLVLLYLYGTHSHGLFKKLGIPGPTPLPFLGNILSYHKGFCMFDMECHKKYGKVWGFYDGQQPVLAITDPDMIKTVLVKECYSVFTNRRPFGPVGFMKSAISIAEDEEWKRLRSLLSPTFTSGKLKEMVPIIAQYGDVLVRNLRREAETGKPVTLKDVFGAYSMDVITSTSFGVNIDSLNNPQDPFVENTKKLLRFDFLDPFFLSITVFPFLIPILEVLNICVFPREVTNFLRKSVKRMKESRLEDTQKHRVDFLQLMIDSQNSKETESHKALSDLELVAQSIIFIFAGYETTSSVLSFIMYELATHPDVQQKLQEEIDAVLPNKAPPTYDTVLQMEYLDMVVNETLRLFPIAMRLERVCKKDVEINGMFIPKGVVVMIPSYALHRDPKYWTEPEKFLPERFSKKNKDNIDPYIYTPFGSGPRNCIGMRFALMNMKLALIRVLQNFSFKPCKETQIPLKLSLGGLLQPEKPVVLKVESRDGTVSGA

CYP450 2D6 = CYP450 2D6 (Homo sapiens, UniProt P10635); experiment: CYP450 inhibition 2D6; type: in vitro ADME
Sequence of CYP450 2D6 (P10635 whole entry): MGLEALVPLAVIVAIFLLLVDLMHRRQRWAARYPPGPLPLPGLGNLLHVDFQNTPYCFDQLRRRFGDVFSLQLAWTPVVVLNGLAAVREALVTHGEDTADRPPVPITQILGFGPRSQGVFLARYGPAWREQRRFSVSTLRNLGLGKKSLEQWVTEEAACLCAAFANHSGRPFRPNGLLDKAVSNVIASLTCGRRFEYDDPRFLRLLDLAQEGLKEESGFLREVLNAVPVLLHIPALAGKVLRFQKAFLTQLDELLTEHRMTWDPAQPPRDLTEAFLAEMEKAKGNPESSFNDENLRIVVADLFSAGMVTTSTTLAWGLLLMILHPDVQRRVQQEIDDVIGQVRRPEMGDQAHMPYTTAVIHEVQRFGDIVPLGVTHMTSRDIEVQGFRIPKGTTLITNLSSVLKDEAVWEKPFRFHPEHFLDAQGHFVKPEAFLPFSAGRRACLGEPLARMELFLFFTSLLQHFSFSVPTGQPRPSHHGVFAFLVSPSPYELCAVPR

primary human AML cells = experiment: AML engraftment in NRGS mice injected with primary human AML cells; type: in vivo; conditions: 20 mg/kg IP TIW, two-week treatment, FIG. 9
Method: FIG. 9. […] Immunocompromised NRGS (NOD.CG-Rag1^tm1MomIl2rg^tm1Wjl (CMV-IL3, CSF2, KITLG) 1Eav/J) mice were given sub-lethal irradiation (200 cGy), followed by tail vein injection of primary human AML cells. At the end of four week, the animals were randomized into two-week treatment groups: vehicle-treated (PBS treatment control), cytarabine-treated 100 mg/kg IP TIW (positive treatment control), and 2470-51 20 mg/kg IP TIW. Bone marrows were examined for the presence of human CD45+ (green) and DAPI).

PAMPA = type: in vitro ADME
alpha-enolase = biological target: T1, alpha-enolase (Homo sapiens, UniProt P06733); experiment: Proteomic target identification (pronase protection, MS/MS); type: binding; conditions: FIG. 7A
T1 construct: endogenous in cells; host or cells: KG-1, primary AML cells (816, LPP4), CD34+ cells; lysates
T1 sequence (P06733 whole entry): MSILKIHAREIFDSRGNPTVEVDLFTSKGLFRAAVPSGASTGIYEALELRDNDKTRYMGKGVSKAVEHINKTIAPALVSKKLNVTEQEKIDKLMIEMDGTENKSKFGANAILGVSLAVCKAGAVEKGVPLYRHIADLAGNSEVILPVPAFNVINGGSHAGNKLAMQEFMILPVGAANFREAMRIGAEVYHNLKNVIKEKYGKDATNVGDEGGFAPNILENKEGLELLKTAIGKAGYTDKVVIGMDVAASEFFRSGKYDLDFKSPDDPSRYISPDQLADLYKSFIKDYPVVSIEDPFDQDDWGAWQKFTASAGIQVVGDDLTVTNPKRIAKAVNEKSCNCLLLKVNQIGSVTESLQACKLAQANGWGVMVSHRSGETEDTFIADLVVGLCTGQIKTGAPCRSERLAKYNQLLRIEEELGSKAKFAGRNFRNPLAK
Method: FIG. 6. This schematic illustrates the proteomics work flow in identifying protein targets for the compounds. AML cells (KG-1, AML 1:816, AML 2:LPP4) and health hematopoietic stem/progenitor cells (CD34+) were lysed and then mixed with either vehicle or a compound (e.g., 2470-51). Following compound-protein binding, pronase was used to cleave the proteins. Where the compound bound to proteins, this site was protected from pronase digestion. The peptides were then analyzed via gel-based target identification and label-free mass spectrometry.

[6] = Microsomal stability, rat; type: in vitro ADME; conditions: microsomes, read-out: Microsomal Stability, t1/2
Human plasma half-life = type: in vitro ADME
enolase [7] = experiment: Enolase protein expression in AML cells; type: cell-based, human; conditions: FIG. 8A
From the text: (§2) FIG. 8A. Enolase protein expression. […] Thus, enolase correlates with malignant transformation, but is not changed by applying compounds of the present invention. FIG. 8B. Effect of compounds on enolase enzyme activity.

Plasma protein binding = type: in vitro ADME
CYP450 2C9 = CYP450 2C9 (Homo sapiens, UniProt P11712); experiment: CYP450 inhibition 2C9; type: in vitro ADME
Sequence of CYP450 2C9 (P11712 whole entry): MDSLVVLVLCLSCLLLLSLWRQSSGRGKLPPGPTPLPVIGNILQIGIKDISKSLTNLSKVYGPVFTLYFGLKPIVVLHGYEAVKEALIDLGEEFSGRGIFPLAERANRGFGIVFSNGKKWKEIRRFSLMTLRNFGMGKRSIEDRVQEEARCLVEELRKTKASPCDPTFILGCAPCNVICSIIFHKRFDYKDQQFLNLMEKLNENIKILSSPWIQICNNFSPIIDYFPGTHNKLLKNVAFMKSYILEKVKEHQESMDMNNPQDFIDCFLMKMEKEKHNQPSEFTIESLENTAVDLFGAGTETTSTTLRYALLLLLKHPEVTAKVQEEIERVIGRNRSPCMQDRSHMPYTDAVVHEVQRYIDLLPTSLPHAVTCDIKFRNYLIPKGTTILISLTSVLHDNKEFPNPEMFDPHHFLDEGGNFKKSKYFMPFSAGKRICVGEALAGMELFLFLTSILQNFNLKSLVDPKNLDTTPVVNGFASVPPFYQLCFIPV

[8] = test system: Primary human AML specimens (824, 872, 874); experiment: Viability of primary human AML specimens; type: cell-based; conditions: 24 hours at 50 ng/mL; P<0.05; FIG. 5A
enolase [9] = biological target: enolase (Homo sapiens, UniProt P06733); experiment: Enolase enzyme activity; type: biochemical; conditions: FIG. 8B
Sequence of enolase (Homo sapiens, UniProt P06733) (P06733 whole entry): as the sequence (P06733 whole entry) above
From the text: as §2

[10] = Microsomal stability, mouse; type: in vitro ADME; conditions: microsomes, read-out: Microsomal Stability, t1/2
Aqueous solubility = type: physicochemical; conditions: aqueous medium
[11] = test system: bone marrow cells from healthy adults; experiment: Viability of bone marrow cells from healthy adults; type: cell-based, human; conditions: FIG. 5B

## CC(C)[C@@H](CN)NC[C@H](C)NS(=O)(=O)c1ccc(C(C)(C)C)cc1 [Compound 2470-15]
[1]
  KG1 toxicity (50 μg/mL): 38.4%

## CC(C)[C@@H](CN)NC[C@@H](NS(=O)(=O)c1ccc(I)cc1)C(C)C [Compound 2470-23]
[2]
  AML-LSC toxicity vs. Jurkat toxicity: specificity of these compounds for AML
[1]
  KG1 toxicity (50 μg/mL): 45.9%
[3]
  killing of AML LSC population versus total AML cell population: selectively kills the AML LSC fraction
  depletion of leukemia stem cells: do deplete the leukemia stem cells
[4]
  depletion of healthy cord blood stem cells: do not deplete healthy stem cells

## CC(C)C[C@H](CN)NC[C@H](CCO)NS(=O)(=O)c1ccc2ccccc2c1 [Compound 2470-40]
[1]
  KG1 toxicity (50 μg/mL): 37.4%

## CC(C)[C@H](CN)NC[C@H](C)NS(=O)(=O)c1ccc2ccccc2c1 [Compound 2470-49]
[1]
  KG1 toxicity (50 μg/mL): 46.7%

## CC(C)[C@H](CN)NC[C@H](C)NS(=O)(=O)c1ccc(C(C)(C)C)cc1 [Compound 2470-51]
[5]
  half-life: 33 min
CYP450 3A4
  IC50: > 20 µM
CYP450 2D6
  IC50: 10.8 µM
Primary human AML cells
  AML engraftment (human CD45+ in bone marrow): significantly reduced AML engraftment
PAMPA
  PAMPA: 1 ×10⁻⁶ cm/s
  PAMPA (grade in words): (moderate)
[2]
  AML-LSC toxicity vs. Jurkat toxicity: specificity of these compounds for AML
alpha-enolase
  binding to alpha-enolase peptide (MS/MS): covalently bound
[6]
  half-life: 9 min
Human plasma half-life
  half-life: > 200 min
[1]
  KG1 toxicity (50 μg/mL): 93.2%
Enolase [7]
  enolase protein expression relative to vehicle: did not change protein expression
Plasma protein binding
  fraction unbound: 0.195
[3]
  killing of AML LSC population versus total AML cell population: selectively kills the AML LSC fraction
  depletion of leukemia stem cells: do deplete the leukemia stem cells
CYP450 2C9
  IC50: > 20 µM
[8]
  AML cell viability compared to vehicle-treated controls: significantly reduced AML cell viability
Enolase [9]
  enolase enzymatic activity: reduced in a dose-dependent fashion
[10]
  half-life: 8 min
Aqueous solubility
  solubility: > 100 µM
[4]
  depletion of healthy cord blood stem cells: do not deplete healthy stem cells
[11]
  cell viability of healthy adult bone marrow cells compared to vehicle control: did not reduce cell viability

Source: patent US11014876B2, “Polyamine sulfonamides and uses thereof” (University of Florida Research Foundation, Inc., priority 2015, dated 2021)
